{"source": "patent US12077503B2", "about": "“Substituted cyclic amides and their use as herbicides” (FMC CORPORATION, priority 2015, dated 2024)", "type_in_all_cases": "in vivo", "key": {"[1]": {"test_system": "ragweed (common ragweed, Ambrosia elatior)", "experiment": "Test A preemergence", "details": "Ambrosia artemisiifolia, pre-emergence, 240 h, preemergence, read-out: Ragweed plant response rating", "method_in_brief": "(§1)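 Visual injury scores from 0, no effect, to 100, complete control, were assigned versus untreated controls roughly 10 d after treatment in the greenhouse. Test chemicals, formulated with surfactant in a non-phytotoxic solvent, were applied to planted seeds as a preemergence soil spray or postemergence to one- to two-leaf plants 2 to 10 cm tall, in loam–sand soil.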"}, "[2]": {"test_system": "giant foxtail (Setaria faberii)", "experiment": "Test A preemergence", "details": "Setaria faberi, pre-emergence, 240 h, preemergence, read-out: Foxtail, Giant plant response rating", "method_in_brief": "as §1"}, "[3]": {"test_system": "barnyardgrass (Echinochloa crus-galli)", "experiment": "Test A preemergence", "details": "Echinochloa crus-galli, pre-emergence, 240 h, preemergence, read-out: Barnyardgrass plant response rating", "method_in_brief": "as §1"}, "[4]": {"test_system": "pigweed (Amaranthus retroflexus)", "experiment": "Test A preemergence", "details": "Amaranthus retroflexus, pre-emergence, 240 h, preemergence, read-out: Pigweed plant response rating"}, "[5]": {"test_system": "ryegrass, Italian (Italian ryegrass, Lolium multiflorum)", "experiment": "Test A preemergence", "details": "Lolium multiflorum, pre-emergence, 240 h, preemergence, read-out: Ryegrass, Italian plant response rating", "method_in_brief": "as §1"}, "Kochia (Kochia scoparia) [6]": {"test_system": "Kochia (Kochia scoparia)", "experiment": "Test A preemergence", "details": "Bassia scoparia, pre-emergence, 240 h, preemergence, read-out: Kochia plant response rating", "method_in_brief": "as §1"}, "corn (Zea mays)": {"test_system": "corn (Zea mays)", "experiment": "Test A postemergence", "details": "Zea mays, post-emergence, 240 h, postemergence, read-out: Corn plant response rating", "method_in_brief": "as §1"}, "[7]": {"test_system": "ragweed (common ragweed, Ambrosia elatior)", "experiment": "Test A postemergence", "details": "Ambrosia artemisiifolia, post-emergence, 240 h, postemergence, read-out: Ragweed plant response rating", "method_in_brief": "as §1"}, "[8]": {"test_system": "giant foxtail (Setaria faberii)", "experiment": "Test A postemergence", "details": "Setaria faberi, post-emergence, 240 h, postemergence, read-out: Foxtail, Giant plant response rating", "method_in_brief": "as §1"}, "[9]": {"test_system": "barnyardgrass (Echinochloa crus-galli)", "experiment": "Test A postemergence", "details": "Echinochloa crus-galli, post-emergence, 240 h, postemergence, read-out: Barnyardgrass plant response rating", "method_in_brief": "as §1"}, "[10]": {"test_system": "blackgrass (Alopecurus myosuroides)", "experiment": "Test A postemergence", "details": "Alopecurus myosuroides, post-emergence, 240 h, postemergence, read-out: Blackgrass plant response rating", "method_in_brief": "as §1"}, "[11]": {"test_system": "ryegrass, Italian (Italian ryegrass, Lolium multiflorum)", "experiment": "Test A postemergence", "details": "Lolium multiflorum, post-emergence, 240 h, postemergence, read-out: Ryegrass, Italian plant response rating", "method_in_brief": "as §1"}, "[12]": {"test_system": "Galium (catchweed bedstraw, Galium aparine)", "experiment": "Test A postemergence", "details": "Galium, post-emergence, 240 h, postemergence, read-out: Galium plant response rating", "method_in_brief": "as §1"}, "[13]": {"test_system": "wheat (Triticum aestivum)", "experiment": "Test A postemergence", "details": "Triticum aestivum, post-emergence, 240 h, postemergence, read-out: Wheat plant response rating", "method_in_brief": "as §1"}, "Kochia (Kochia scoparia) [14]": {"test_system": "Kochia (Kochia scoparia)", "experiment": "Test A postemergence", "details": "Bassia scoparia, post-emergence, 240 h, postemergence, read-out: Kochia plant response rating", "method_in_brief": "as §1"}, "[15]": {"details": "125 g ai/ha, 0 to 100 scale where 0 is no effect and 100 is complete control, approx. 10 d"}, "[16]": {"details": "500 g ai/ha, visual injury rating about 10 d after treatment, 0 to 100 scale (0 no effect, 100 complete control)"}, "[17]": {"details": "125 g ai/ha, visual injury on 0 to 100 scale (0 no effect, 100 complete control), approx. 10 d"}, "[18]": {"details": "500 g ai/ha, 0 to 100 scale, 0 is no effect, 100 is complete control"}}, "data": [{"smiles": "CN1C[C@H](c2cc(F)cc(F)c2)[C@@H](C(=O)Nc2ccncc2F)C1=O", "note": "[Compound 1095]", "values": [{"measurement": "pest or weed control at 125 g/ha", "setting": "[1]; [15]", "value": 0, "unit": "%"}, {"measurement": "pest or weed control at 500 g/ha", "setting": "[1]; [16]", "value": 0, "unit": "%"}, {"measurement": "pest or weed control at 125 g/ha", "setting": "[2]; [15]", "value": 0, "unit": "%"}, {"measurement": "pest or weed control at 500 g/ha", "setting": "[2]; [16]", "value": 90, "unit": "%"}, {"measurement": "pest or weed control at 125 g/ha", "setting": "[3]; [15]", "value": 0, "unit": "%"}, {"measurement": "pest or weed control at 500 g/ha", "setting": "[3]; [16]", "value": 60, "unit": "%"}, {"measurement": "pest or weed control at 125 g/ha", "setting": "[4]; [15]", "value": 0, "unit": "%"}, {"measurement": "pest or weed control at 500 g/ha", "setting": "[4]; [16]", "value": 30, "unit": "%"}, {"measurement": "pest or weed control at 125 g/ha", "setting": "[5]; [15]", "value": 0, "unit": "%"}, {"measurement": "pest or weed control at 500 g/ha", "setting": "[5]; [16]", "value": 0, "unit": "%"}, {"measurement": "pest or weed control at 125 g/ha", "setting": "Kochia (Kochia scoparia) [6]; [15]", "value": 0, "unit": "%"}, {"measurement": "pest or weed control at 500 g/ha", "setting": "Kochia (Kochia scoparia) [6]; [16]", "value": 0, "unit": "%"}, {"measurement": "plant injury at 125 g/ha", "setting": "corn (Zea mays); [17]", "value": 0, "unit": "%"}, {"measurement": "plant injury at 500 g/ha", "setting": "corn (Zea mays); [18]", "value": 0, "unit": "%"}, {"measurement": "pest or weed control at 125 g/ha", "setting": "[7]; [17]", "value": 0, "unit": "%"}, {"measurement": "pest or weed control at 500 g/ha", "setting": "[7]; [18]", "value": 0, "unit": "%"}, {"measurement": "pest or weed control at 125 g/ha", "setting": "[8]; [17]", "value": 0, "unit": "%"}, {"measurement": "pest or weed control at 500 g/ha", "setting": "[8]; [18]", "value": 0, "unit": "%"}, {"measurement": "pest or weed control at 125 g/ha", "setting": "[9]; [17]", "value": 0, "unit": "%"}, {"measurement": "pest or weed control at 500 g/ha", "setting": "[9]; [18]", "value": 0, "unit": "%"}, {"measurement": "pest or weed control at 125 g/ha", "setting": "[10]; [17]", "value": 0, "unit": "%"}, {"measurement": "pest or weed control at 500 g/ha", "setting": "[10]; [18]", "value": 0, "unit": "%"}, {"measurement": "pest or weed control at 125 g/ha", "setting": "[11]; [17]", "value": 0, "unit": "%"}, {"measurement": "pest or weed control at 500 g/ha", "setting": "[11]; [18]", "value": 0, "unit": "%"}, {"measurement": "pest or weed control at 125 g/ha", "setting": "[12]; [17]", "value": 0, "unit": "%"}, {"measurement": "pest or weed control at 500 g/ha", "setting": "[12]; [18]", "value": 0, "unit": "%"}, {"measurement": "plant injury at 125 g/ha", "setting": "[13]; [17]", "value": 0, "unit": "%"}, {"measurement": "plant injury at 500 g/ha", "setting": "[13]; [18]", "value": 0, "unit": "%"}, {"measurement": "pest or weed control at 125 g/ha", "setting": "Kochia (Kochia scoparia) [14]; [17]", "value": 0, "unit": "%"}, {"measurement": "pest or weed control at 500 g/ha", "setting": "Kochia (Kochia scoparia) [14]; [18]", "value": 0, "unit": "%"}]}]}
